Here are results for one molecule from US20260265177A1, “BICYCLIC COMPOUNDS AS INACTIVATORS OF OAT AND GABA-AT” (Northwestern University, priority 2023, published 2026).

Holding throughout (format): biochemical
For assay [1], the target named is T1, hOAT (Homo sapiens, UniProt P04181).
T1 sequence (P04181 36-439 limits assumed): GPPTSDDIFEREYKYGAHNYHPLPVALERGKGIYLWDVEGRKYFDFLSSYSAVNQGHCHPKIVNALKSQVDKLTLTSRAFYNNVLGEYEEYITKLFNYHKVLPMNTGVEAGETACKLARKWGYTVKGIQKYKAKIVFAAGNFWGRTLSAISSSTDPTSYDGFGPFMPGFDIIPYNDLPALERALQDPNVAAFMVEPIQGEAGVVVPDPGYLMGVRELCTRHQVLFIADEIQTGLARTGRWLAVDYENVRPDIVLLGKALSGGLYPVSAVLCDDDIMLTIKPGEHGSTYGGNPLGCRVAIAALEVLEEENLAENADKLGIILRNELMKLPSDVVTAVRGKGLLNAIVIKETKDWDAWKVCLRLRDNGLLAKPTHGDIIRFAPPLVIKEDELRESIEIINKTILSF
In words: Time-dependent inactivation of hOAT. The conditions noted are these: enantiopure compound.

In a further assay the test system is GABA-AT. Briefly: Time-dependent inhibition of GABA-AT. The conditions noted are these: conclusion statement. The source says: Time-dependent inhibition of both GABA-AT and OAT were explored with racemic 6 (FIGS. 4 and 5). […] Racemic Vince lactam was used for the aforementioned biological assays.
The target in assay [2] is T1, hOAT. In words: Dialysis of hOAT inactivated by compound. The conditions noted are these: hOAT dialyzed at 5° C. for 72 hours. On the procedure:
Samples of hOAT that had been inactivated by varying equivalents of 6 were dialyzed at 5° C. for 72 hours. At 4-, 12-, 24-, 48-, and 72-hour time points, aliquots were taken and the activity of the hOAT was measured.

Assay [3] addresses T1, hOAT. Briefly: Turnover number and partition ratio by titrating hOAT with varying equivalents of inactivator. How it is done: The turnover number and partition ratio of 6 were determined by titrating a known amount of hOAT with varying equivalents of inactivator (FIG. 12). The linear relationship of the remaining enzymatic activity was extrapolated to yield the number of equivalents of 6 required to inactivate the enzyme completely. From this we determined the turnover number of 6 to be 8.5 equivalent and the partition ratio to be 7.5. Based on our understanding of the mechanism, we believe that the turnover number may indicate that the second deprotonation is slow, which would allow the ketimine time to hydrolyze in a higher percentage than if the second deprotonation occurred rapidly.

Regarding `N[C@@H]1CC2C(F)(F)[C@@]2(C(=O)O)C1` (stereo partly drawn) [compound 6, (1S,3R)-3-amino-6,6-difluorobicyclo[3.1.0]hexane-1-carboxylic acid], at hOAT [1], the kinact/KI (as a rule, the second-order rate constant of inactivation) is 2.6 M⁻¹ s⁻¹. In addition, the “activity in GABA-AT” value in the assay on GABA-AT is recorded as “modest activity”. In addition, the “enzymatic activity recovered after dialysis” value on hOAT [2] is reported as “No enzymatic activity was recovered”. Besides, at hOAT [3], the partition ratio is 7.5. The turnover number on hOAT [3] (extrapolated from linear relationship of remaining enzymatic activity) was 8.5 equivalent.
